The target of test [1] is T1, TPα^T337A (Homo sapiens, UniProt P21731, T337A).
T1 construct: expressed in transfected cells
T1 sequence (P21731 1-343 T337A): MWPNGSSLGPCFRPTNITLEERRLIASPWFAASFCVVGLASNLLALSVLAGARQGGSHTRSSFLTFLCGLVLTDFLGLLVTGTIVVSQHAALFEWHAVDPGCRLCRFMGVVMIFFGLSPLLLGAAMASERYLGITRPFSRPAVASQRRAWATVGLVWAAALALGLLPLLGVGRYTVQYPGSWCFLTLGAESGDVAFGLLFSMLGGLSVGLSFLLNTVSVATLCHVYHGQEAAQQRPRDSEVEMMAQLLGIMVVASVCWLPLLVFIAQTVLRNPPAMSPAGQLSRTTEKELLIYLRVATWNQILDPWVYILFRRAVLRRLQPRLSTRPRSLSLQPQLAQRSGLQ
Nature of the test: [3H]SQ29,548 radioligand binding, Scatchard analysis, HEK.TPα^T337A. The method, then:
(§1) Cells were harvested by centrifugation at 500×g at 4 °C for 5 min and washed three times with ice-cold Ca^2+/Mg^2+-free phosphate-buffered saline (PBS). TP radioligand binding assays were carried out at 30 °C for 30 min in 100 μl reactions in the presence of 0–40 nM [^3H] […] Protein determinations were carried out using the Bradford assay.
(§2) Radioligand binding and Scatchard analysis data were analysed using GraphPad Prisim V4.0 programme (GraphPad Software Inc., San Diego CA, USA). Statistical analyses were carried out using the unpaired Student's t test using the Statworks Analysis Package. p-values ≤ 0.01 indicated statistically significant differences.

The target in test [2] is T2, TPα^S145A (Homo sapiens, UniProt P21731, S145A).
T2 construct: expressed in transfected cells
T2 sequence (P21731 1-343 S145A): T1 sequence (P21731 1-343 T337A) with S145A, A337T
The experiment in a line: [3H]SQ29,548 radioligand binding, Scatchard analysis, HEK.TPα^S145A. The method, then: as §1, §2

In test [3] the target is T2, TPα^S145A. The experiment in a line: Intracellular calcium mobilization, HEK.TPα^S145A cells. In kind it is cell-based. The settings on record: for Δ[Ca2+]i, U46619-induced: HEK.TPα^S145A. The method, then: Measurement of intracellular calcium mobilization ([Ca^2+]i) in FURA2/AM preloaded HEK 293 cell lines (2 × 10^6 cells/dish), each transiently co-transfected with pADVA (10 μg), and pCMV:Gαq (25 μg), was carried out as previously described. To investigate the effect of GRK2/βARK1 on TP-mediated [Ca^2+]i mobilization, HEK.TPα or HEK.TPβ cells (2 × 10^6 cells/dish) were co-transfected with pADVA (10 μg), pCMV:Gαq (25 μg) along with pRK5:βARK1^495–689 (25 μg), encoding a dominant negative form of GRK2/βARK1[39]. Approximately 48 h post-transfection, cells were harvested by scraping, washed twice in ice-cold PBS and resuspended in HBSSHB (modified Ca^2+/Mg^2+-free Hank's buffered salt solution, containing […], pH 7.67, 0.1% bovine serum albumin (BSA)) buffer at 10^7 cells/ml and incubated in the dark with 5 μM FURA2/AM for 45 min at 37 °C. […] For each measurement of [Ca^2+]i mobilization, aliquots of cells were diluted to 0.825 × 10^6 cells/ml in HBSSHB, 1 mM CaCl2 and FURA2 fluorescence was recorded (2 ml aliquots of cells) at 37^ °C with gentle stirring with a Perkin Elmer-Cetus LS50-B spectrofluorometer at excitation wavelengths of 340 nm and 380 nm and emission wavelength of 510 nm, respectively.
Cells were stimulated with the TP agonist U46619 (1 μM) and changes in [Ca^2+]i mobilization were monitored as a function of time. To assess agonist-mediated homologous desensitization, cells (0.825 × 10^6 cells/ml; 2 ml per assay) were stimulated with 1 μM U46619 (Primary stimulation) or, as a control, with the vehicle for 4 min; thereafter, cells were collected by centrifugation (900×g, 5 min); were washed twice in 2 ml HBSSHB, 1 mM CaCl2; and finally resuspended in 2 ml HBSSHB,1 mM CaCl2 and were left to recover over various time intervals (ranging from 0 to 60 min); thereafter, cells re-stimulated with 1 μM U46619 (Secondary stimulation) and changes in [Ca^2+]i mobilization were monitored as a function of time. […]
In general terms: A change in cytosolic calcium serves as a functional read-out for many receptors and channels.

Consider two compounds from PMC2680961, “Homologous desensitization of signalling by the alpha (α) isoform of the human thromboxane A2 receptor: A specific role for nitric oxide signalling” (Biochimica et Biophysica Acta, 2007).

SMILES strings stand for the structures. Positions count from the first letter of the chain named.

Turning to `O=C(O)CCC/C=C\C[C@@H]1[C@H](CNNC(=O)Nc2ccccc2)[C@H]2CC[C@@H]1O2` [SQ29,548], the “Bmax (pmol/mg protein ± S.E.M.)” value was found to be 4.23 ± 0.04 pmol/mg protein in test [1] and 3.03 ± 0.04 pmol/mg protein in test [2].
As to `CCCCC[C@H](O)/C=C/[C@@H]1[C@@H](C/C=C\CCCC(=O)O)[C@H]2CO[C@@H]1C2` [U46619], the entries for the “Δ[Ca2+]i, U46619-induced” value in test [3] (primary 1 μM U46619 4 min) and in test [3] (secondary 1 μM U46619 at 15 min) were 157 ± 3.8 nM and 37 ± 4.2 nM, respectively. Besides, the “secondary U46619 [Ca2+]i response relative to primary response” value in test [3] (TPα^S145A) is listed as 24%.
